Measured values: the supplement of paper PMC10307832

What was measured:
Assay in all cases: relative viability (nuclei count vs DMSO), 5 days (fraction); higher = more cells survive
PC-3 [JPC-3] = system: PC-3 [JPC-3]
In short: (§1)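 Lung cancer cell lines in 1536-well plates were dosed by pin tool the day after seeding, either with one drug alone or with a fixed anchor-drug dose plus five library-drug doses (not always all listed) in √10 steps. After 5 days, cells were fixed and their nuclei stained in one step (final 0.05% Triton X-100, 1% formaldehyde, 1 ug/ml Hoechst), then counted on 4× images. Relative viability is the nuclei count in treated wells divided by that in vehicle wells. Values are medians of duplicate plates.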

A-427 = system: A-427
In short: as §1

LK-2 = system: LK-2
In short: as §1

NCI-H596 = system: NCI-H596
In short: as §1

NCI-H1993 = system: NCI-H1993
In short: as §1

HOP-62 = system: HOP-62
In short: as §1

EMC-BAC-2 = system: EMC-BAC-2
In short: as §1

SW 1573 = system: SW 1573
In short: as §1

NCI-H3122 = system: NCI-H3122
In short: as §1

NCI-H1944 = system: NCI-H1944
In short: as §1

SK-MES-1 = system: SK-MES-1
In short: as §1

NCI-H727 = system: NCI-H727
In short: as §1

ABC-1 = system: ABC-1
In short: as §1

NCI-H2228 = system: NCI-H2228
In short: as §1

NCI-H2009 = system: NCI-H2009
In short: as §1

HARA = system: HARA
In short: as §1

NCI-H1792 = system: NCI-H1792
In short: as §1

NCI-H322M = system: NCI-H322M
In short: as §1

LXF-289 = system: LXF-289
In short: as §1

CCN(CC)CCCCNc1ncc2cc(-c3cc(OC)cc(OC)c3)c(NC(=O)NC(C)(C)C)nc2n1 + C[C@]1(O)C[C@@H](c2nc(-c3ccc4ccc(-c5ccccc5)nc4c3)c3c(N)nccn32)C1 [Linsitinib] (partner 1 µM)
relative viability (PC-3 [JPC-3]; first compound 0.01 µM): 0.999
relative viability (PC-3 [JPC-3]; first compound 0.03162 µM): 0.982
relative viability (PC-3 [JPC-3]; first compound 0.1 µM): 0.954
relative viability (PC-3 [JPC-3]; first compound 0.3162 µM): 1.03
relative viability (PC-3 [JPC-3]; first compound 1 µM): 0.993
relative viability (A-427; first compound 0.01 µM): 1.12
relative viability (A-427; first compound 0.03162 µM): 1.17
relative viability (A-427; first compound 0.1 µM): 1.21
relative viability (A-427; first compound 0.3162 µM): 1.18
relative viability (A-427; first compound 1 µM): 0.993
relative viability (LK-2; first compound 0.01 µM): 0.536
relative viability (LK-2; first compound 0.03162 µM): 0.339
relative viability (LK-2; first compound 0.1 µM): 0.401
relative viability (LK-2; first compound 0.3162 µM): 0.356
relative viability (LK-2; first compound 1 µM): 0.17
relative viability (NCI-H596; first compound 0.01 µM): 1.1
relative viability (NCI-H596; first compound 0.03162 µM): 1.05
relative viability (NCI-H596; first compound 0.1 µM): 1.05
relative viability (NCI-H596; first compound 0.3162 µM): 1.07
relative viability (NCI-H596; first compound 1 µM): 0.814
relative viability (NCI-H1993; first compound 0.01 µM): 0.763
relative viability (NCI-H1993; first compound 0.03162 µM): 0.807
relative viability (NCI-H1993; first compound 0.1 µM): 0.831
relative viability (NCI-H1993; first compound 0.3162 µM): 0.751
relative viability (NCI-H1993; first compound 1 µM): 0.731
relative viability (HOP-62; first compound 0.01 µM): 1.04
relative viability (HOP-62; first compound 0.03162 µM): 1.02
relative viability (HOP-62; first compound 0.1 µM): 0.935
relative viability (HOP-62; first compound 0.3162 µM): 1.14
relative viability (HOP-62; first compound 1 µM): 0.873
relative viability (EMC-BAC-2; first compound 0.01 µM): 0.873
relative viability (EMC-BAC-2; first compound 0.03162 µM): 0.836
relative viability (EMC-BAC-2; first compound 0.1 µM): 0.821
relative viability (EMC-BAC-2; first compound 0.3162 µM): 0.838
relative viability (EMC-BAC-2; first compound 1 µM): 0.771
relative viability (SW 1573; first compound 0.01 µM): 0.811
relative viability (SW 1573; first compound 0.03162 µM): 0.785
relative viability (SW 1573; first compound 0.1 µM): 0.892
relative viability (SW 1573; first compound 0.3162 µM): 0.734
relative viability (SW 1573; first compound 1 µM): 0.789
relative viability (NCI-H3122; first compound 0.01 µM): 1.05
relative viability (NCI-H3122; first compound 0.03162 µM): 1.02
relative viability (NCI-H3122; first compound 0.1 µM): 1.08
relative viability (NCI-H3122; first compound 0.3162 µM): 1.04
relative viability (NCI-H3122; first compound 1 µM): 1.01
relative viability (NCI-H1944; first compound 0.01 µM): 1.27
relative viability (NCI-H1944; first compound 0.03162 µM): 1.08
relative viability (NCI-H1944; first compound 0.1 µM): 1.2
relative viability (NCI-H1944; first compound 0.3162 µM): 1.3
relative viability (NCI-H1944; first compound 1 µM): 1.12
relative viability (SK-MES-1; first compound 0.01 µM): 1.04
relative viability (SK-MES-1; first compound 0.03162 µM): 1.26
relative viability (SK-MES-1; first compound 0.1 µM): 1.16
relative viability (SK-MES-1; first compound 0.3162 µM): 1.16
relative viability (SK-MES-1; first compound 1 µM): 1.09
relative viability (NCI-H727; first compound 0.01 µM): 0.297
relative viability (NCI-H727; first compound 0.03162 µM): 0.251
relative viability (NCI-H727; first compound 0.1 µM): 0.293
relative viability (NCI-H727; first compound 0.3162 µM): 0.363
relative viability (NCI-H727; first compound 1 µM): 0.301
relative viability (ABC-1; first compound 0.01 µM): 0.915
relative viability (ABC-1; first compound 0.03162 µM): 0.809
relative viability (ABC-1; first compound 0.1 µM): 0.88
relative viability (ABC-1; first compound 0.3162 µM): 0.838
relative viability (ABC-1; first compound 1 µM): 0.722
relative viability (NCI-H2228; first compound 0.01 µM): 0.741
relative viability (NCI-H2228; first compound 0.03162 µM): 0.834
relative viability (NCI-H2228; first compound 0.1 µM): 0.872
relative viability (NCI-H2228; first compound 0.3162 µM): 1.07
relative viability (NCI-H2228; first compound 1 µM): 0.635
relative viability (NCI-H2009; first compound 0.01 µM): 1.29
relative viability (NCI-H2009; first compound 0.03162 µM): 1.19
relative viability (NCI-H2009; first compound 0.1 µM): 1.23
relative viability (NCI-H2009; first compound 0.3162 µM): 1.26
relative viability (NCI-H2009; first compound 1 µM): 1.21
relative viability (HARA; first compound 0.01 µM): 1.04
relative viability (HARA; first compound 0.03162 µM): 1
relative viability (HARA; first compound 0.1 µM): 0.989
relative viability (HARA; first compound 0.3162 µM): 0.933
relative viability (HARA; first compound 1 µM): 0.672
relative viability (NCI-H1792; first compound 0.01 µM): 0.572
relative viability (NCI-H1792; first compound 0.03162 µM): 0.501
relative viability (NCI-H1792; first compound 0.1 µM): 0.475
relative viability (NCI-H1792; first compound 0.3162 µM): 0.696
relative viability (NCI-H1792; first compound 1 µM): 0.295
relative viability (NCI-H322M; first compound 0.01 µM): 0.99
relative viability (NCI-H322M; first compound 0.03162 µM): 0.875
relative viability (NCI-H322M; first compound 0.1 µM): 0.938
relative viability (NCI-H322M; first compound 0.3162 µM): 0.982
relative viability (NCI-H322M; first compound 1 µM): 0.891
relative viability (LXF-289; first compound 0.01 µM): 0.974
relative viability (LXF-289; first compound 0.03162 µM): 1.02
relative viability (LXF-289; first compound 0.1 µM): 1.03
relative viability (LXF-289; first compound 0.3162 µM): 0.972
relative viability (LXF-289; first compound 1 µM): 0.843
